Tests used:
[1] = system: Plasmodium falciparum 3D7 Strain; test: Antiplasmodial SYBR Green I assay, chloroquine-sensitive 3D7 strain; assay type: cell-based
[2] = system: Plasmodium falciparum W2 Strain; test: microbe, parasite or virus in culture; assay type: cell-based
[3] = system: HUVEC cells; settings: human

CCN(CC)CCCC(C)Nc1ccnc2cc(Cl)ccc12 (centres unmarked) [CQ, chloroquine, reference compound]
IC50 ([1]; Plasmodium falciparum, chloroquine-sensitive 3D7, 48 h incubation, SYBR Green I, read-out: IC50 ± SD, Plasmodium falciparum 3D7 Strain): 22.4 ± 3.24 nM | IC50 ([2]; Plasmodium falciparum, W2, 48 h, read-out: IC50 ± SD, Plasmodium falciparum W2 Strain): 134 ± 32.3 nM

O=C(COc1ccccc1)N1CCC(N(C(=O)COc2ccccc2)c2ccccc2)CC1 [Compound 10]
Selectivity Index (3D7) =CC50/IC50 ([1]; CC50 HUVEC / IC50 3D7): >8.9 | Selectivity Index (W2) =CC50/IC50 ([2]; CC50 HUVEC / IC50 W2): >5.3 | CC50 ± SD, HUVEC Cells [3]: >100 nM

— PMC7024169, “Synthesis and Antimalarial Activity of 1,4-Disubstituted Piperidine Derivatives” (Molecules, 2020)
